Data published in US20130281448A1, “SMALL MOLECULE COMPOUNDS FOR TARGETING INFLAMMATORY CONDITIONS” (priority 2012, published 2013).

Tests used:
[1] = test system: rheumatoid arthritis; assay: Example 3: patient with rheumatoid arthritis; assay type: in vivo, human; conditions: 150 mg daily for several weeks
Method: A patient is diagnosed with rheumatoid arthritis. Erlotinib is administered in a dose of 150 mg daily for several weeks.

[2] = test system: multiple sclerosis; assay: Example 5: group of patients with multiple sclerosis, placebo controlled; assay type: in vivo, human; conditions: erlotinib 150, gefitinib 250, icotinib 300 mg daily for several weeks, versus placebo
Method: (§1) A group of patients with multiple sclerosis is identified. The patients are administered erlotinib (150 mg daily), gefitinib (250 mg daily), icotinib (300 mg daily), or placebo in for several weeks. […] Following clinical improvement, the dose of erlotinib, gefitinb, or icotinib is reduced to a maintenance dose as low as 25 mg, 50 mg, or 75 mg daily, respectively.

[3] = test system: mild plaque psoriasis; assay: Case report Example 1: psoriasis under erlotinib; assay type: in vivo, human; conditions: person, 150 mg daily oral
Text: (§2) A person, whose child has a history of recurrent-remitting MS, developed severe back pain. […] After one year, their serum level of antithyroid peroxidase was reduced from 1719 to 366.

[4] = test system: type 2 insulin requiring diabetes mellitus; assay: Case report Example 1: diabetes / insulin requirement under erlotinib; assay type: in vivo, human; conditions: person, 150 mg daily oral
Text: as §2

[5] = test system: MS; assay: Case report Example 2: course of MS (symptoms, brain MRI); assay type: in vivo, human
Text: A person was well, when they developed numbness and tingling in their lower extremities. A magnetic resonance imaging (MRI) of the brain, along with spinal fluid findings, were consistent with MS. […] From then, they were asymptomatic except for three exacerbations which also responded to intravenous methyl prednisone. They took no other medications for MS.
(§3) They were placed on interferon β-1a. […], they developed weakness in their lower extremities and was switched to natalizumab. […] […], independent of their MS, they developed NSCLC with a genetic mutation. Natalizumab was discontinued and erlotinib was initiated at an oral dose of 150 mg daily. […] Brain MRIs with contrast two months prior to starting erlotinib, immediately prior to starting erlotinib, and after three and six months on erlotinib are unchanged.

[6] = test system: insulin resistance; assay: Example 6: group of patients with insulin resistance, placebo controlled; assay type: in vivo, human; conditions: erlotinib 150, gefitinib 250, icotinib 300 mg daily for several weeks, versus placebo
Method: as §1, with “insulin resistance” for “multiple sclerosis”

[7] = on the face, scalp, neck, and back; cited from earlier work
[8] = test system: Crohn's disease; assay: Example 4: patient with Crohn's disease; assay type: in vivo, human; conditions: 150 mg daily for several weeks
Method: A patient is diagnosed with Crohn's disease. Erlotinib is administered in a dose of 150 mg daily for several weeks.

[9] = test system: NSCLC with a genetic mutation; assay: Case report Example 2: NSCLC in MS patient on erlotinib; assay type: in vivo, human; conditions: person; oral 150 mg daily; after six months
Method: as §3

[10] = test system: Hashimoto's thyroiditis; assay: Case report Example 1: Hashimoto's thyroiditis, serum antithyroid peroxidase under erlotinib; assay type: in vivo, human; conditions: person; 150 mg daily oral; after one year; reduced from 1719 before treatment
Text: as §2

[11] = test system: metastatic NSCLC with a genetic mutation; assay: Case report Example 1: metastatic NSCLC patient on daily oral erlotinib; assay type: in vivo, human; conditions: person, 150 mg daily oral
Text: as §2

[12] = test system: psoriasis; assay: Example 7: group of patients with psoriasis, placebo controlled; assay type: in vivo, human; conditions: erlotinib 150, gefitinib 250, icotinib 300 mg daily for several weeks, versus placebo
Method: as §1, with “psoriasis” for “multiple sclerosis”

C#Cc1cccc(Nc2ncnc3cc(OCCOC)c(OCCOC)cc23)c1 [erlotinib]
clinical outcome [1]: Clinical improvement is seen | clinical outcome [2]: Clinical improvement is seen | evidence of psoriasis ([3]; after seven months): no evidence of NSCLC or psoriasis | psoriasis ([3]; three weeks after starting): their psoriasis cleared | insulin requirement / new medication to control diabetes ([4]; after seven months): remains off of insulin and has not required any new medication to control their diabetes | insulin requirement ([4]; after ten weeks): no longer required insulin | enhancing lesions on brain MRI ([5]; person with MS, oral 150 mg daily, after three and six months): no enhancing lesions | brain MRIs with contrast ([5]; person with MS, oral 150 mg daily, after three and six months versus before starting): unchanged | clinical outcome [6]: Clinical improvement is seen | most common adverse effect [7]: mild to moderate reversible papulopustular skin eruption | clinical outcome [8]: Clinical improvement is seen | cancer status [9]: total remission | serum level of antithyroid peroxidase [10]: 366 | evidence of NSCLC ([11]; after seven months): no evidence of NSCLC or psoriasis | severe back pain ([11]; three weeks after starting): their pain abated | clinical outcome [12]: Clinical improvement is seen

COc1cc2ncnc(Nc3ccc(F)c(Cl)c3)c2cc1OCCCN1CCOCC1 [gefitinib]
clinical outcome [2]: Clinical improvement is seen | clinical outcome [6]: Clinical improvement is seen | clinical outcome [12]: Clinical improvement is seen

C#Cc1cccc(Nc2ncnc3cc4c(cc23)OCCOCCOCCO4)c1 [icotinib]
clinical outcome [2]: Clinical improvement is seen | clinical outcome [6]: Clinical improvement is seen | clinical outcome [12]: Clinical improvement is seen

methyl prednisone
response of MS at first presentation ([5]; patient one, intravenous): achieved total remission | response of three MS exacerbations ([5]; patient, intravenous): responded

natalizumab
MS symptoms ([5]; patient, since the switch): asymptomatic since that time
